Measured values from patent US12492188B2, “1H-benzo[D]imidazole derivatives as TLR9 inhibitors for the treatment of fibrosis” (BRISTOL-MYERS SQUIBB COMPANY, priority 2020, dated 2025).
Like-named read-outs stand apart in the source and are kept apart here.

Assays:
Format in all cases: cell-based
human TLR7 = target: T1, human TLR7 (Homo sapiens, UniProt Q9NYK1); assay: TLR7 inhibition reporter assay (HEK-Blue cells, secreted embryonic alkaline phosphatase reporter); conditions: HEK-Blue cells overexpressing human TLR7, stimulated with gardiquimod 7.5 μM; read-out: TLR 7 IC50
T1 construct: host or cells: HEK-Blue cells (HEK293-derived reporter line)
T1 sequence (Q9NYK1 27-1049): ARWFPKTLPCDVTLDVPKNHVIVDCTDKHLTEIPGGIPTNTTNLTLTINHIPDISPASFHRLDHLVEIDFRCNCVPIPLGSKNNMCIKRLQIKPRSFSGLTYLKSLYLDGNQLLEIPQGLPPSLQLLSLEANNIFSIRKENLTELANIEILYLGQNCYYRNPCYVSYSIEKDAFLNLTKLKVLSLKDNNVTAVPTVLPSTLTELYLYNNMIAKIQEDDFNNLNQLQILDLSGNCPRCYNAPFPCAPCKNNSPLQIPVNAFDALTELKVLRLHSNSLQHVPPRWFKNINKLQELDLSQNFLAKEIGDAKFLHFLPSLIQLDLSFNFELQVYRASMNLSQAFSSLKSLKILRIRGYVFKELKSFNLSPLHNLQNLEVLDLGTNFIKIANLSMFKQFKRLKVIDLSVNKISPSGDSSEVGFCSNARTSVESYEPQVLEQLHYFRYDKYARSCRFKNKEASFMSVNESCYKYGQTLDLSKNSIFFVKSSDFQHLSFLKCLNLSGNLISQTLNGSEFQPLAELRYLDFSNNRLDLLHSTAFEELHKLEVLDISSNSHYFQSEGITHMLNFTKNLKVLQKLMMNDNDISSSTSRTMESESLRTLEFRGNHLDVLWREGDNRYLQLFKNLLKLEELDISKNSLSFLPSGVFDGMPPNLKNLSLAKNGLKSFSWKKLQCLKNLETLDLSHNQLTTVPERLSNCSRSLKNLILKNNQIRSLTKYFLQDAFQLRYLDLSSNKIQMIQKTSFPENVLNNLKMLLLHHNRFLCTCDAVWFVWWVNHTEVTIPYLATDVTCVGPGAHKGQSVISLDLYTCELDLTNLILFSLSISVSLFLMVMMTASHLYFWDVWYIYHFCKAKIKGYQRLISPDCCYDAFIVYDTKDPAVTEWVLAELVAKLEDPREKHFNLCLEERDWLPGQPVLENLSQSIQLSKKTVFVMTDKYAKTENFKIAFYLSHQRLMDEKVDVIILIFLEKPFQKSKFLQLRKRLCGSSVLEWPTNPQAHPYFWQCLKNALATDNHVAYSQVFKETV
Summary of the method: (§1)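 Cells seeded at 15000 (TLR7), 20,000 (TLR8) or 25,000 (TLR9) per well; compound 0.05 nM–50 μM, 30 min RT pre-incubation. Agonists: gardiquimod 7.5 μM, R848 15.9 μM, ODN2006 5 nM respectively. 22 h, 37 °C; SEAP via HEK-Blue Detection; % inhibition vs agonist+DMSO and known-inhibitor wells.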

human TLR9 = target: T2, human TLR9 (Homo sapiens, UniProt Q9NR96); assay: TLR9 inhibition reporter assay (HEK-Blue cells, secreted embryonic alkaline phosphatase reporter)
T2 construct: host or cells: HEK-Blue cells (HEK293-derived reporter line)
T2 sequence (Q9NR96 26-1032): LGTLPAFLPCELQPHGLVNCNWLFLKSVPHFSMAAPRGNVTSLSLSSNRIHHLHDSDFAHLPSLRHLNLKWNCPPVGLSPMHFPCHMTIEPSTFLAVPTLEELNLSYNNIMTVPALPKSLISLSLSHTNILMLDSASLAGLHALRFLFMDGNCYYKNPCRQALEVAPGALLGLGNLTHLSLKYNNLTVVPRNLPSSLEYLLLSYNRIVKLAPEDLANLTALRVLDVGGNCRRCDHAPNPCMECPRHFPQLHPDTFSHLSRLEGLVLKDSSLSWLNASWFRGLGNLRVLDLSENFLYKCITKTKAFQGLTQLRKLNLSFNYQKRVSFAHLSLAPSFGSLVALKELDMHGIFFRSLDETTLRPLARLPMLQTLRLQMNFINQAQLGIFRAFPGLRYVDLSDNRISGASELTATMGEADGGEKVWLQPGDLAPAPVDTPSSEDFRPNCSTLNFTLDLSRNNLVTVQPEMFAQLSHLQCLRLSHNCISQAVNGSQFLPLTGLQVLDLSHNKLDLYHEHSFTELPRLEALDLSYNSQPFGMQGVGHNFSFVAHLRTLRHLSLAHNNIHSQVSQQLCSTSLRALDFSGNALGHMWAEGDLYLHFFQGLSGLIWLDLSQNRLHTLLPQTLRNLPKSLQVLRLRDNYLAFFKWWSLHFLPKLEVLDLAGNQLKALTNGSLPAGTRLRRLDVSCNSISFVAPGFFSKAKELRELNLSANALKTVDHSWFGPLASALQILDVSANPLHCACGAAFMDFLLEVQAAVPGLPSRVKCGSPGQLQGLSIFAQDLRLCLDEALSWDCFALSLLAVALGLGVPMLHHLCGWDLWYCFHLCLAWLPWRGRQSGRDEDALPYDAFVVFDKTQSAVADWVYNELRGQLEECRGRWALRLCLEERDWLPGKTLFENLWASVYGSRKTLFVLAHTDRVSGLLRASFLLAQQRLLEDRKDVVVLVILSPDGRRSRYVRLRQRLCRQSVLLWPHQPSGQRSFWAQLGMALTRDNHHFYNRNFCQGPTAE
Summary of the method: as §1

human TLR8 = target: T3, human TLR8 (Homo sapiens, UniProt Q9NR97); assay: TLR8 inhibition reporter assay (HEK-Blue cells, secreted embryonic alkaline phosphatase reporter); conditions: HEK-Blue cells overexpressing human TLR8, stimulated with R848 15.9 μM; read-out: TLR 8 IC50
T3 construct: host or cells: HEK-Blue cells (HEK293-derived reporter line)
T3 sequence (Q9NR97 27-1041): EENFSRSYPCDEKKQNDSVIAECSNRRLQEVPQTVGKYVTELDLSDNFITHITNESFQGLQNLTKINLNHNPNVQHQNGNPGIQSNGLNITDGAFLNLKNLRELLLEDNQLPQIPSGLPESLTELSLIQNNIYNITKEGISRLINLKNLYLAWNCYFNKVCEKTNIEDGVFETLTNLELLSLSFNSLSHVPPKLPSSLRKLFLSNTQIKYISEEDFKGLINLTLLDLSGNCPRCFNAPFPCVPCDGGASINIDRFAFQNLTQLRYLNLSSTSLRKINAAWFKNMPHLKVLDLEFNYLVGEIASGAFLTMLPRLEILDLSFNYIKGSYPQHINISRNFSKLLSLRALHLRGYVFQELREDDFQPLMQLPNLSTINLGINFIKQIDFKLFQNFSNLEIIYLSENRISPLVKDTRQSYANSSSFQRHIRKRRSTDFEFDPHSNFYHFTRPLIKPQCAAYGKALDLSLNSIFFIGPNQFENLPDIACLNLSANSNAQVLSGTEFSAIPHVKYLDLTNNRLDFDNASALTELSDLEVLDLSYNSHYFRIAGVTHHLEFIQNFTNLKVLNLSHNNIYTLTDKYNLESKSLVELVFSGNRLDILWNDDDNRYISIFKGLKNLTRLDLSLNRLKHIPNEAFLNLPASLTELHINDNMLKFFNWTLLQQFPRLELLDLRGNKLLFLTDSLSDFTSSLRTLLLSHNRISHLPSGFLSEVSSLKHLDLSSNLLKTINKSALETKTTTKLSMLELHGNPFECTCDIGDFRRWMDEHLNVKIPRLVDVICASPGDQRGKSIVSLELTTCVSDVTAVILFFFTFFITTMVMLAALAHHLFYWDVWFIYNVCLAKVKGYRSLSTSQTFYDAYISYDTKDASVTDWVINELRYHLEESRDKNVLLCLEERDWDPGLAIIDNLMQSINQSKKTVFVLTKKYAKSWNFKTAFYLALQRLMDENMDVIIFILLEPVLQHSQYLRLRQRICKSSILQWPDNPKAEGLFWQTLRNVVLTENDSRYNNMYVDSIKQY
Summary of the method: as §1

[1] = HEK-Blue cells overexpressing human TLR9, stimulated with ODN2006 5 nM, 22 hour incubation, reporter readout
[2] = HEK-Blue cells overexpressing human TLR9, stimulated with ODN2006 5 nM, read-out: TLR 9 IC50

IC50 (human TLR7)	IC50 (human TLR9; [1])	IC50 (human TLR8)	IC50 (human TLR9)	IC50 (human TLR9; [2])	Structure (SMILES)
7300 nM	73 nM	> 50000 nM			CC(C)N1CCC(N2CCC(c3cc4c(cc3F)nc(-c3ccc(S(C)(=O)=O)cc3)n4C)CC2)CC1 [Example 96, 5-fluoro-6-(1′-isopropyl-[1,4′-bipiperidin]-4-yl)-1-methyl-2-(4-(methylsulfonyl)phenyl)-1H-benzo[d]imidazole]
3800 nM		> 50000 nM	96 nM	96 nM	Cn1c(-c2ccc(S(C)(=O)=O)cc2)nc2c(F)c(C3CCN(C4CC5CCC(C4)N5CC4CC4)CC3)ccc21 (single isomer, unassigned) [Example 191, 5-(1-(8-(cyclopropylmethyl)-8-azabicyclo[3.2.1]octan-3-yl)piperidin-4-yl)-4-fluoro-1-methyl-2-(4-(methylsulfonyl)phenyl)-1H-benzo[d]imidazole]
35600 nM		> 50000 nM	130 nM	133 nM	Cn1c(-c2ccc(S(C)(=O)=O)cc2)nc2cc(F)c(C3CCN(C4CCN(C5CC5)CC4)CC3)cc21 [Example 222, 6-(1′-cyclopropyl-[1,4′-bipiperidin]-4-yl)-5-fluoro-1-methyl-2-(4-(methylsulfonyl)phenyl)-1H-benzo[d]imidazole]
19500 nM	75 nM	> 50000 nM			CC(C)N1C2CCC1CC(N1CCC(c3cc4nc(-c5ccc(S(C)(=O)=O)cc5)n(C)c4cc3F)CC1)C2 (single isomer, unassigned) [Example 101, 6-fluoro-5-(1-(8-isopropyl-8-azabicyclo[3.2.1]octan-3-yl)piperidin-4-yl)-1-methyl-2-(4-(methylsulfonyl)phenyl)-1H-benzo[d]imidazole]
6600 nM		> 50000 nM	120 nM	121 nM	CC(C)CN1CCC(N2CCC(c3cc4nc(-c5ccc(S(C)(=O)=O)cc5)n(C)c4cc3F)CC2)CC1 [Example 240, 6-fluoro-5-(1′-isobutyl-[1,4′-bipiperidin]-4-yl)-1-methyl-2-(4-(methylsulfonyl)phenyl)-1H-benzo[d]imidazole]
19200 nM	120 nM	> 25000 nM		116 nM	Cc1cc(C2CCN(C3CC4CCC(C3)N4CC(C)C)CC2)cc2c1nc(-c1ccc(S(C)(=O)=O)cc1)n2C (stereo not drawn) [Example 118, 6-(1-(8-isobutyl-8-azabicyclo[3.2.1]octan-3-yl)piperidin-4-yl)-1,4-dimethyl-2-(4-(methylsulfonyl)phenyl)-1H-benzo[d]imidazole]

Second part, the molecule before the results:

Structure (SMILES)	IC50 (human TLR7)	IC50 (human TLR9; [1])	IC50 (human TLR8)	IC50 (human TLR9)	IC50 (human TLR9; [2])
COc1cc(-c2nc3c(C)cc(C4CCN(C5CCN(C(C)C)CC5)CC4)cc3n2C)cn2ncnc12 [Example 125, 6-(6-(1′-isopropyl-[1,4′-bipiperidin]-4-yl)-1,4-dimethyl-1H-benzo[d]imidazol-2-yl)-8-methoxy-[1,2,4]triazolo[1,5-a]pyridine]	600 nM	28 nM	2100 nM		
COCCN1C2CCC1CC(N1CCC(c3cc(C)c4nc(-c5ccc(OC)c(OC)c5)n(C)c4c3)CC1)C2 (single isomer, unassigned) [Example 168, 2-(3,4-dimethoxyphenyl)-6-(1-(8-(2-methoxyethyl)-8-azabicyclo[3.2.1]octan-3-yl)piperidin-4-yl)-1,4-dimethyl-1H-benzo[d]imidazole]	14000 nM		> 25000 nM	51 nM	51 nM
Cn1c(-c2ccc(S(C)(=O)=O)cc2)nc2c(F)c(C3CCN(C4CC5CCC(C4)N5CC4CC4)CC3)ccc21 (single isomer, unassigned) [Example 192, 5-(1-(8-(cyclopropylmethyl)-8-azabicyclo[3.2.1]octan-3-yl)piperidin-4-yl)-4-fluoro-1-methyl-2-(4-(methylsulfonyl)phenyl)-1H-benzo[d]imidazole]	> 50000 nM		> 50000 nM	190 nM	186 nM
CCOP(=O)(OCC)c1ccc(-c2nc3c(C)cc(C4CCN(C5CCN(C6CC6)CC5)CC4)cc3n2C)cc1 [Example 422, diethyl(4-(6-(1′-cyclopropyl-[1,4′-bipiperidin]-4-yl)-1,4-dimethyl-1H-benzo[d]imidazol-2-yl)phenyl)phosphonate]	4000 nM	180 nM	27300 nM		180 nM
COc1ccc(-c2nc3cc(C4CCN(C5CCN(C(C)C)CC5)CC4)c(C(F)(F)F)cc3[nH]2)cc1OC [Example 10, 2-(3,4-dimethoxyphenyl)-5-(1′-isopropyl-[1,4′-bipiperidin]-4-yl)-6-(trifluoromethyl)-1H-benzo[d]imidazole]	> 50000 nM	240 nM	> 50000 nM		244 nM
COc1ccc(-c2nc3ccc(C4CCN(C5CCN(C(C)C)CC5)CC4)cc3[nH]2)cc1OC [Example 2, 2-(3,4-dimethoxyphenyl)-6-(1′-isopropyl-[1,4′-bipiperidin]-4-yl)-1H-benzo[d]imidazole]	16000 nM	120 nM	> 50000 nM		123 nM
